In patent publication US20110288154A1, “RNA Interference Mediated Inhibition of Epithelial Sodium Channel (ENaC) Gene Expression Using Short Interfering Nucleic Acid (siNA)” (MERCK & CO., INC., priority 2008, published 2011):
[invAb] = inverted abasic unit; d = 2'-deoxy (DNA); m = 2'-O-methyl; r = 2'-OH (RNA); f = 2'-fluoro

What was measured:
ENaCα mRNA = assay: Screening of ENaCα siNAs in human A549 cells (quantitative RT-PCR); format: cell-based; set-up: Percent Reduction of the ENaCα mRNA relative to a non-targeting control siNA (NTC): concentration or dose not given beside the values; conditions: human A549 cells, n = 3; for Avg ENaCα Expression: 25 nM siNA with Lipofectamine 2000, harvested 24 hours post-transfection; for Mean (level of ENaCα expression normalized to the level of GAPDH) / Percent Reduction of the ENaCα mRNA relative to a non-targeting control siNA (NTC) / Avg GAPDH Expression: 24 hours post-transfection; for Avg GAPDH Expression: housekeeping gene used for normalisation
Procedure: siNA constructs (Table 1b) may be tested for efficacy in reducing ENaC RNA expression in, for example, A549 human lung carcinoma cells. A549 (human; ATCC cat# CCL-185) cells were cultured at 37° C. in the presence of 5% CO2 and grown in Ham's F12K medium with 2 mM L-glutamine adjusted to contain 1.5 g/L sodium bicarbonate and supplemented with fetal bovine serum at a final concentration of 10% and 100 U/mL penicillin. The A549 cells were plated approximately 24 hours before transfection in 96-well plates at 7,500 cells/well, 100 μl/well. After 24 hours complexes containing siNA and Lipofectamine 2000 (Invitrogen) were created as follows: a solution of Lipofectamine 2000 in OPTI-MEM was prepared containing Lipofectamine 2000 at a final concentration of 14 μg/ml. In parallel, solutions of the siNAs were prepared in OPTI-MEM at a final concentration of 150 nM. After both solutions were incubated at 20° C. for 20 minutes an equal volume of the siNA solutions and the Lipofectamine 2000 solution were added together for each of the siNAs. The resultant solution has the siNAs at a final concentration of 75 nM and Lipofectamine 2000 at a final concentration of 7 μg/ml. This solution was incubated at 20° C. for 20 minutes. After incubation 50 μl of the solution were added to each of the wells (in triplicate). The final concentration of siNA in each well was 25 nM and the final concentration of Lipofectamine 2000 in each well was 2.33 μg/ml. […] Dose response curves were determined in a similar manner with each concentration being done in triplicate and maintaining a constant amount of Lipofectamine 2000 in each transfection.
RNA was extracted from 96-well plates using the Invitek Invisorb RNA Cell HTS 96 Kit/C (Cat# 70619000) with a slightly modified protocol. The details of the protocol for isolating RNA from each plate are described as follows:
1) Aspirate media with rake 2) Add 150 ul/well Lysis buffer 3) Place on plate shaker for 1 minute 4) Place DNA binding plate on top of 0.5 ml collection plate 5) Pipette 190 ul up and down twice and add to DNA binding plate 6) Cover plate 7) Centrifuge plates 4 minutes at 4000 RPM 8) Discard DNA binding plate 9) Place the RNA binding plate on top of 2 ml collection plate 10) Add 150 ul/well of Binding Buffer R to 0.5 ml collection plate 11) Move contents of 0.5 ml collection plate to RNA binding plate 12) Let incubate for 1 minute 13) Centrifuge plates 4 minutes at 4000 RPM 14) Add 600 ul/well of Wash Buffer R1 to RNA binding plate 15) Centrifuge plates 4 minutes at 4000 RPM 16) Dump wash buffer from 2 ml collection plate 17) Add 400 ul/well of Wash Buffer R2 to RNA binding plate 18) Centrifuge plates 4 minutes at 4000 RPM 19) Add 400 ul/well of Wash Buffer R2 to RNA binding plate 20) Centrifuge plates 10 minutes at 4000 RPM 21) Dump wash buffer from 2 ml collection plate 22) Centrifuge plates 3 minutes at 4000 RPM 23) Discard 2 ml collection plate and place RNA binding plate on to microtiter plate 24) Add 100 ul/well of elution buffer to RNA binding plate 25) Incubate for 2 minutes 26) Seal plate 27) Centrifuge plates 3 minutes at 4000 RPM 28) Discard RNA binding plate 29) Cover microtiter plate for storage in −80 freezer
A series of probes and primers were used to detect the various mRNA transcripts of the genes of ENaCa and GAPDH in mouse, rat, and human cell lines. The assays were performed on an ABI 7500 instrument, according to the manufacturer's instructions. Within each experiment, the baseline was set in the exponential phase of the amplification curve, and based on the intersection point of the baselines with the amplification curve, a Ct value was assigned by the instrument. This Ct value was then assigned a QTY value based on the Standard Curve. The standard curve in the various experiments herein used 1 ng to 300 ng of RNA extracted from the same cell line used for the experimental transfections. […]

rSCNN1A (r ENaCα) mRNA = assay: Screening of ENaCα siNAs in Rat H-4-II-E cells (quantitative RT-PCR); format: cell-based; set-up: Percent Reduction of the r ENaCα mRNA relative to a non-targeting control siNA (NTCs) / Rat % KD (efficacy of ENaCα mRNA knockdown): concentration or dose not given beside the values; conditions: Rat H-4-II-E cells, n = 3; for Mean (rSCNN1A expression normalized to the level of rGAPDH) / Percent Reduction of the r ENaCα mRNA relative to a non-targeting control siNA (NTCs) / Avg GAPDH Expression (rGAPDH): 24 hours post-transfection; for Avg ENaCα Expression (rSCNN1A): harvested 24 hours post-transfection; for Avg GAPDH Expression (rGAPDH): housekeeping gene used for normalisation
Procedure: A series of probes and primers were used to detect the various mRNA transcripts of the genes of ENaCa and GAPDH in mouse, rat, and human cell lines. The assays were performed on an ABI 7500 instrument, according to the manufacturer's instructions. Within each experiment, the baseline was set in the exponential phase of the amplification curve, and based on the intersection point of the baselines with the amplification curve, a Ct value was assigned by the instrument. This Ct value was then assigned a QTY value based on the Standard Curve. The standard curve in the various experiments herein used 1 ng to 300 ng of RNA extracted from the same cell line used for the experimental transfections.
All IC50 values were calculated from the data using GraphPad Prizm software, specifically a sigmoidal, variable slope curve for simple ligand binding. Also, unless otherwise indicated, all calculations of the efficacy and potency (e.g., % knockdown) of the siNAs were done relative to a non-targeting control siNA. If reported, P-values were computed using The Students t-test, including the Welch Correction for unequal variances.
In all of the calculations of the % knock-down of mRNA, the calculation was made relative to the normalized level of expression of the gene of interest in the samples treated with the non-targeting control (NTC) unless otherwise indicated. The gene of interest expression level was divided by the level of expression of GAPDH or 36B4 (depending on the species) in each sample. The three replicates for each condition in each experiment were averaged and the standard deviation of those samples was calculated. The following formula was then used to calculate the % of knock-down of the gene of interest:
The ENaCα siNAs were designed and synthesized as described previously. The siNAs were screened in three cell lines. Human A549 cells, mouse NIH 3T3 and Rat H-4-II-E cells. The data from the screen of ENaCa siNAs in all three species is shown in Tables 3a, 3b, 4a, 4b, 5a, and 5b and a summary of the data for certain siNA molecules is presented in Table 6. Each screen was performed at 24 hrs. The decision to use this time point was based upon the degree of knockdown of the mRNA seen at that time point.

| Substance | Avg ENaCα Expression (ENaCα mRNA) | Mean (level of ENaCα expression normalized to the level of GAPDH) (ENaCα mRNA) | Percent Reduction of the ENaCα mRNA relative to a non-targeting control siNA (NTC) (ENaCα mRNA) | Avg GAPDH Expression (ENaCα mRNA) | Mean (rSCNN1A expression normalized to the level of rGAPDH) (rSCNN1A (r ENaCα) mRNA) | Percent Reduction of the r ENaCα mRNA relative to a non-targeting control siNA (NTCs) (rSCNN1A (r ENaCα) mRNA) | Avg ENaCα Expression (rSCNN1A) (rSCNN1A (r ENaCα) mRNA) | Avg GAPDH Expression (rGAPDH) (rSCNN1A (r ENaCα) mRNA) |
| --- | --- | --- | --- | --- | --- | --- | --- | --- |
| B AAccGCAuGAAGAcGGccu TTB / AGGccGucuucAuGcGGuuUU (chain 1 AACCGCAUGAAGACGGCCUTT; chain 2 AGGCCGUCUUCAUGCGGUUUU; siRNA; chain 1: sugars from the 5' end ddffdddfdddddfddfffdd, [invAb] at 5' end, 3' end, backbone not given here; chain 2: sugars from the 5' end rrrffmfffffmfmfmmffmm, backbone not given here) [Site 337] | 67.27 | 1.48 | 5.0% | 49.84 | 0.96 | 25.4% | 16.40 | 17.17 |
| B AAccuGGGcAGccAGuGGA TTB / UCCAcuGGcuGcccAGGuuUU (sense AACCUGGGCAGCCAGUGGATT; antisense UCCACUGGCUGCCCAGGUUUU; siRNA; sense: sugars from the 5' end ddfffdddfddffddfddrdd, [invAb] at 5' end, 3' end, backbone not given here; antisense: sugars from the 5' end rrrmffmmffmfffmmmffmm, backbone not given here) [Site 1747] | 75.36 | 0.58 | 12.3% | 130.33 | 0.56 | 39.5% | 23.39 | 41.88 |
| B AGccAGuGGAGccuGuGGu TTB / ACCAcAGGcuccAcuGGcuUU (sense AGCCAGUGGAGCCUGUGGUTT; antisense ACCACAGGCUCCACUGGCUUU; siRNA; sense: DNA at AGT, 2'-fluoro at CU, [invAb] at 5' end, 3' end, backbone not given here; antisense: sugars from the 5' end rrrmfmmmffffmffmmffmm, backbone not given here) [Site 1756] | 73.20 | 0.71 | −8.2% | 102.64 | 0.57 | 38.3% | 23.08 | 40.27 |
| B AGuGuGGcuGuGccuAcAu TTB / AUGuAGGcAcAGccAcAcuUU (sense AGUGUGGCUGUGCCUACAUTT; antisense AUGUAGGCACAGCCACACUUU; siRNA; sense: DNA at AGT, 2'-fluoro at CU, [invAb] at 5' end, 3' end, backbone not given here; antisense: sugars from the 5' end rrrfmmmfmfmmffmfmffmm, backbone not given here) [Site 1382] | 72.49 | 1.30 | 16.6% | 57.29 | 0.84 | 34.5% | 22.02 | 26.11 |
| B AccGcAuGAAGAcGGccuu TTB / AAGGccGucuucAuGcGGuUU (chain 1 ACCGCAUGAAGACGGCCUUTT; chain 2 AAGGCCGUCUUCAUGCGGUUU; siRNA; chain 1: DNA at AGT, 2'-fluoro at CU, [invAb] at 5' end, 3' end, backbone not given here; chain 2: sugars from the 5' end rrrmffmfffffmfmfmmfmm, backbone not given here) [Site 338] | 65.83 | 0.90 | 42.2% | 76.32 | 0.79 | 38.7% | 14.22 | 18.42 |
| B AccuGGGcAGccAGuGGAG TTB / CUCcAcuGGcuGcccAGGuUU (sense ACCUGGGCAGCCAGUGGAGTT; antisense CUCCACUGGCUGCCCAGGUUU; siRNA; sense: DNA at AGT, 2'-fluoro at CU, [invAb] at 5' end, 3' end, backbone not given here; antisense: sugars from the 5' end rrrfmffmmffmfffmmmfmm, backbone not given here) [Site 1748] | 80.25 | 0.61 | 7.2% | 131.14 | 0.60 | 34.7% | 26.11 | 43.45 |
